Among the data in ChEMBL document CHEMBL1133788, “Structure--activity relationships of side-chain modified didemnins” (Bioorg Med Chem Lett, 2001) are LC50, GI50 and TGI values, retold here.

Common to all, as to assay type: functional
Series [1] can be described thus: Lethal concentration for inhibitory activity evaluated in NCI-60 tumor cell screen. As to conditions: human.
Series [2] is described as follows: Growth inhibitory activity evaluated in NCI-60 tumor cell screen. The conditions noted are these: Homo sapiens.
Series [3] is described as follows: Total Growth inhibitory activity evaluated in NCI-60 tumor cell screen. The conditions noted are these: Homo sapiens.

`CC[C@H](C)[C@H]1NC(=O)[C@@H](NC(=O)[C@@H](CC(C)C)N(C)C(=O)[C@@H]2C=CCN2C(=O)[C@@H](C)O)[C@@H](C)OC(=O)[C@H](Cc2ccc(OC)cc2)N(C)C(=O)[C@@H]2CCCN2C(=O)[C@H](CC(C)C)NC(=O)[C@@H](C)C(=O)[C@H](C(C)C)OC(=O)C[C@@H]1O` yielded an LC50 in series [1] of 0.083 µM. In addition, the GI50 in series [2] is 0.0028 µM. In series [3], this compound yielded a total growth inhibition concentration (TGI) of 0.02 µM.
For `CC[C@H](C)[C@H]1NC(=O)[C@@H](NC(=O)[C@@H](CC(C)C)N(C)C(=O)C2CCCN2)[C@@H](C)OC(=O)[C@H](Cc2ccc(OC)cc2)N(C)C(=O)[C@@H]2CCCN2C(=O)[C@H](CC(C)C)NC(=O)[C@@H](C)C(=O)[C@H](C(C)C)OC(=O)C[C@@H]1O` (stereo not given in full), in that order: 0.21 µM, 0.00062 µM and 0.012 µM.
For `CC[C@H](C)[C@H]1NC(=O)[C@@H](NC(=O)[C@@H](CC(C)C)N(C)C(=O)[C@H]2C=CCN2)[C@@H](C)OC(=O)[C@H](Cc2ccc(OC)cc2)N(C)C(=O)[C@@H]2CCCN2C(=O)[C@H](CC(C)C)NC(=O)[C@@H](C)C(=O)[C@H](C(C)C)OC(=O)C[C@@H]1O`, in that order: 7 µM, 0.003 µM and 0.039 µM.
`CC[C@H](C)[C@H]1NC(=O)[C@@H](NC(=O)[C@@H](CC(C)C)N(C)C[C@@H]2CCCN2C(=O)[C@@H](C)O)[C@@H](C)OC(=O)[C@H](Cc2ccc(OC)cc2)N(C)C(=O)[C@@H]2CCCN2C(=O)[C@H](CC(C)C)NC(=O)[C@@H](C)C(=O)[C@H](C(C)C)OC(=O)C[C@@H]1O`: the LC50 in series [1] stood at 3 µM. The compound further displayed a GI50 in series [2] of 0.004 µM. The TGI in series [3] was found to be 0.076 µM.
In series [1], `CC[C@H](C)[C@H]1NC(=O)[C@@H](NC(=O)[C@@H](CC(C)C)N(C)C(=O)CNC(=O)Cc2cc(=O)oc3cc(N(C)C)ccc23)[C@@H](C)OC(=O)[C@H](Cc2ccc(OC)cc2)N(C)C(=O)[C@@H]2CCCN2C(=O)[C@H](CC(C)C)NC(=O)[C@@H](C)C(=O)[C@H](C(C)C)OC(=O)C[C@@H]1O` had an LC50 of 7.2 µM. In series [2], this compound registered a GI50 of 0.011 µM. In series [3], this compound displayed a TGI of 0.0205 µM.

A word on the LC50: it is the concentration that kills 50% of the test population. Higher therefore signals a less lethal substance. What is called GI50 is the concentration at which growth is held to half of that of the control. What is called TGI is the concentration giving total growth inhibition.
